Data from patent US6894061B2, “Substituted dihydrophenanthridinesulfonamides” (Wyeth, priority 2002, dated 2005).
One block for each compound: values may come before it.

Legend:
[1] = system: ER/NF-κB; experiment: ER/NF-κB luciferase reporter in Ad5-wt-ERα infected HAECT-1 cells; format: cell-based, human; settings: Homo sapiens, HAECT1, IL-1β; for Emax: read-out: ER/NFκB Efficacy (%)*; for IC50: read-out: ER/NFκB IC50
Experimental: (§1) After four hours, cells were washed with EBM-BSA and incubated overnight in the same medium. Following overnight incubation, cells were washed with EBM-BSA and infected for 2 hours with 6 mL of a 1:10 dilution of Ad5-3x(NFκB).Luc virus (Adenovirus luciferase expression vector driven by 3 repeats of the MHC NFκb site 5′ to the thymidine kinase promoter) in EBM-BSA. After two hours, cells were washed and incubated at 34° C. for 1 hour. […] Control (no ER infection) cells were processed as above without Ad5-wt-hERα virus infection.
(§2) ERα infected HAECT-1 cells or control cells were thawed, diluted 42× in warm EBM-BSA, plated into 96-well plates at 0.1 mL/well and incubated for 4 hours at 34° C. Test compounds were added to the cells as 2× stocks in EBM-BSA containing 2 ng/mL IL-1β (R&D Systems) and the 96-well plates were returned to the incubator (34° C.). After 15-20 hours, 100 μL aliquots of media were removed from the cells and assayed for IL-6 content using a BioSource human IL-6 ELISA Kit. Cells were subsequently washed with 300 μL of Dulbecco's phosphate buffered saline and lysed in 50 μL of Cell Culture Lysis Reagent (Promega). Luciferase was determined on a Wallac Victor^2 Luminometer (Gaithersburg, Md.) using 10 μL of lysate and mixing with 100 μL of Promega Luciferase Assay reagent. Creatine kinase was determined from the rate of increase in A340 following addition of 100 μL of CK assay reagent (Sigma, cat. No 47-10) to the remainder of the cell lysate.
(§3) For IC50 and EC50 calculations, mean IL-6, luciferase or CK values versus log10 of the compound concentration were fitted to a four parameter logistic equation. The IC50/EC50 value, ‘Hill slope’, upper and lower limits of the curve were iteratively estimated.

[2] = system: creatine kinase; experiment: Creatine kinase (CK) test procedure in Ad5-wt-ERα infected HAECT-1 cells; format: cell-based, human; settings: Homo sapiens, HAECT1, Ad5-wt-ERα infected HAECT-1 cells; for EC50: read-out: Creatin Kinase EC50; for Emax / Emax at 10 µM: read-out: Creatin Kinase Efficacy (%)
Experimental: as §1, §2, §3

SMILES: C[C@@H]1c2ccccc2-c2ccccc2N1S(=O)(=O)c1ccc(O)cc1 (single isomer, unassigned) [Example 3]
Emax [1]: 97%
IC50 [1]: 1510 nM
Emax at 10 µM [2]: < 35%
melting point: 181 to 183 °C

SMILES: CC(C)(C)C1c2ccccc2-c2ccccc2N1S(=O)(=O)c1ccc(O)cc1 (stereo not drawn) [Example 14, 4-[(6-tert-Butylphenanthridin-5(6H)-yl)sulfonyl]phenol]
Emax [1]: 105%
IC50 [1]: 108 nM
EC50 [2]: 757 nM
Emax [2]: 50%
melting point: 192 to 194 °C

SMILES: CCC1c2ccccc2-c2cc(-c3cccc4c3oc3ccccc34)ccc2N1S(=O)(=O)c1ccc(O)cc1 (stereo not drawn) [Example 31, 4-[(2-Dibenzo[b,d]furan-4-yl-6-ethylphenanthridin-5(6H)-yl)sulfonyl]phenol]
Emax [1]: 108%
IC50 [1]: 254 nM
Emax at 10 µM [2]: < 35%
melting point: 218 to 220 °C

SMILES: Cc1cc(S(=O)(=O)N2c3ccccc3-c3cccc(O)c3C2C)ccc1O (stereo not drawn) [Example 38, 5-[(4-Hydroxy-3-methylphenyl)sulfonyl]-6-methyl-5,6-dihydrophenanthridin-7-ol]
IC50 [1]: > 10000 nM
Emax at 10 µM [2]: < 35%
melting point: 258 °C

SMILES: CC(C)(C)C1c2ccccc2-c2cc(Br)ccc2N1S(=O)(=O)c1ccc(O)cc1 (stereo not drawn) [Example 17, 4-[(2-Bromo-6-tert-butylphenanthridin-5(6H)-yl)sulfonyl]phenol]
Emax [1]: 76%
IC50 [1]: 58 nM
Emax at 10 µM [2]: < 35%
melting point: 245 to 247 °C

SMILES: Cc1cc(S(=O)(=O)N2c3ccccc3-c3ccc(F)cc3C2C)ccc1O (stereo not drawn) [Example 35, 4-[(8-Fluoro-6-methylphenanthridin-5(6H)-yl)sulfonyl]-2-methylphenol]
Emax [1]: 94%
IC50 [1]: 707 nM
Emax at 10 µM [2]: < 35%
melting point: 196 °C

SMILES: CC(C)(C)[C@H]1c2ccccc2-c2ccccc2N1S(=O)(=O)c1ccc(O)cc1 [Example 16, 4-{[(S)-6-tert-Butylphenanthridin-5(6H)-yl]sulfonyl}phenol]
Emax [1]: 89%
IC50 [1]: 2280 nM
EC50 [2]: 3160 nM
Emax [2]: 15%
melting point: 187 to 189 °C

SMILES: C[C@H]1c2ccccc2-c2ccccc2N1S(=O)(=O)c1ccc(O)cc1 (single isomer, unassigned) [Example 2]
Emax [1]: 103%
IC50 [1]: 40 nM
EC50 [2]: 420 nM
Emax [2]: 28%
melting point: 176 to 178 °C

SMILES: O=S(=O)(c1ccc(O)cc1)N1c2ccc(Br)cc2-c2ccccc2C1c1ccccc1 (stereo not drawn) [Example 12, 4-[(2-Bromo-6-phenylphenanthridin-5(6H)-yl)sulfonyl]phenol]
Emax [1]: 93%
IC50 [1]: 682 nM
Emax at 10 µM [2]: < 35%
melting point: 262 to 265 °C

SMILES: CC1c2ccccc2-c2cc(Br)ccc2N1S(=O)(=O)c1ccc(O)cc1 (stereo not drawn) [Example 4, 4-[(2-Bromo-6-methylphenanthridin-5(6H)-yl)sulfonyl]phenol]
Emax [1]: 101%
IC50 [1]: 54 nM
EC50 [2]: 48 nM
Emax [2]: 23%
melting point: 201 to 203 °C

SMILES: CCC1c2cc(F)ccc2-c2ccccc2N1S(=O)(=O)c1ccc(O)cc1 (stereo not drawn) [Example 40, 4-[(6-Ethyl-8-fluorophenanthridin-5(6H)-yl)sulfonyl]phenol]
Emax [1]: 99%
IC50 [1]: 27 nM
Emax at 10 µM [2]: < 35%
melting point: 151 °C

SMILES: CC1c2ccccc2-c2ccccc2N1S(=O)(=O)c1ccc(O)c(O)c1 (stereo not drawn) [Example 23, 4-[(6-Methylphenanthridin-5(6H)-yl)sulfonyl]benzene-1,2-diol]
IC50 [1]: > 10000 nM
Emax at 10 µM [2]: < 35%
melting point: 163 to 165 °C

SMILES: CCC1c2ccccc2-c2cc(-c3cccc(O)c3)ccc2N1S(=O)(=O)c1ccc(O)cc1 (stereo not drawn) [Example 30, 3-{6-Ethyl-5-[(4-hydroxyphenyl)sulfonyl]-5,6-dihydrophenanthridine-2-yl}phenol]
Emax [1]: 76%
IC50 [1]: 53 nM
Emax at 10 µM [2]: < 35%
melting point: 105 °C

SMILES: CC1c2ccccc2-c2ccccc2N1S(=O)(=O)c1ccc(O)c(CO)c1 (stereo not drawn) [Example 26, 2-(Hydroxymethyl)-4-[(6-methylphenanthridin-5(6H)-yl)sulfonyl]phenol]
IC50 [1]: > 10000 nM
Emax at 10 µM [2]: < 35%
melting point: 182 to 184 °C

SMILES: CC1c2ccccc2-c2ccccc2N1S(=O)(=O)c1ccc(O)cc1 (stereo not drawn) [Example 1, 4-[(6-Methylphenanthridin-5(6H)-yl)sulfonyl]phenol]
Emax [1]: 94%
IC50 [1]: 422 nM
EC50 [2]: 1000 nM
Emax [2]: 39%
melting point: 196 to 198 °C

SMILES: O=S(=O)(c1ccc(O)cc1)N1c2ccccc2-c2ccccc2[C@H]1c1ccccc1 (single isomer, unassigned) [Example 10]
Emax [1]: 95%
IC50 [1]: 61 nM
Emax at 10 µM [2]: < 35%
melting point: 208 to 210 °C

SMILES: CCC1c2cc(F)ccc2-c2ccccc2N1S(=O)(=O)c1ccc(O)c(C)c1 (stereo not drawn) [Example 41, 4-[(6-Ethyl-8-fluorophenanthridin-5(6H)-yl)sulfonyl]-2-methylphenol]
Emax [1]: 75%
IC50 [1]: 815 nM
EC50 [2]: 429 nM
Emax [2]: 24%
melting point: 181 °C

SMILES: O=S(=O)(c1ccc(O)cc1)N1c2ccccc2-c2ccccc2[C@@H]1c1ccccc1 (single isomer, unassigned) [Example 11]
Emax [1]: 115%
IC50 [1]: 168 nM
EC50 [2]: 117 nM
Emax [2]: 37%
melting point: 210 to 212 °C

Second part, led by results:

IC50 [1]: 56 nM
EC50 [2]: 77 nM
melting point: 197 to 200 °C
SMILES: CCC1c2cc(F)ccc2-c2cc(C)ccc2N1S(=O)(=O)c1ccc(O)cc1 (stereo not drawn) [Example 51, 4-[(6-Ethyl-8-fluoro-2-methylphenanthridin-5(6H)-yl)sulfonyl]phenol]
Emax [1]: 106%
Emax [2]: 27%

IC50 [1]: > 10000 nM
melting point: 167 to 170 °C
SMILES: CCC1c2ccc(C)cc2-c2ccccc2N1S(=O)(=O)c1ccc(O)cc1 (stereo not drawn) [Example 43, 4-[(6-Ethyl-9-methylphenanthridin-5(6H)-yl)sulfonyl]phenol]
Emax at 10 µM [2]: < 35%

IC50 [1]: > 10000 nM
melting point: 191 °C
SMILES: CC1c2cc(F)ccc2-c2ccccc2N1S(=O)(=O)c1ccc(O)c(F)c1 (stereo not drawn) [Example 49, 2-Fluoro-4-[(8-fluoro-6-methylphenanthridin-5(6H)-yl)sulfonyl]phenol]
Emax at 10 µM [2]: < 35%

IC50 [1]: 85 nM
melting point: 220 to 221 °C
SMILES: CCC1c2cc(F)ccc2-c2cc(Br)ccc2N1S(=O)(=O)c1ccc(O)cc1 (stereo not drawn) [Example 44, 4-[(2-Bromo-6-ethyl-8-fluorophenanthridin-5(6H)-yl)sulfonyl]phenol]
Emax [1]: 94%
Emax at 10 µM [2]: < 35%

IC50 [1]: > 10000 nM
melting point: 174 to 177 °C
SMILES: CCC1c2cc(F)ccc2-c2ccccc2N1S(=O)(=O)c1ccc(O)c(Cl)c1 (stereo not drawn) [Example 46, 2-Chloro-4-[(6-ethyl-8-fluorophenanthridin-5(6H)-yl)sulfonyl]phenol]
Emax at 10 µM [2]: < 35%

IC50 [1]: 60 nM
melting point: 207 °C
SMILES: CCC1c2cc(F)ccc2-c2cc(-c3ccccc3)ccc2N1S(=O)(=O)c1ccc(O)cc1 (stereo not drawn) [Example 47, 4-[(6-Ethyl-8-fluoro-2-phenylphenanthridin-5(6H)-yl)sulfonyl]phenol]
Emax [1]: 89%
Emax at 10 µM [2]: < 35%

IC50 [1]: 83 nM
melting point: 167 to 169 °C
SMILES: CCC1c2c(C)cccc2-c2ccccc2N1S(=O)(=O)c1ccc(O)cc1 (stereo not drawn) [Example 42, 4-[(6-ethyl-7-methylphenanthridin-5(6H)-yl)sulfonyl]phenol]
Emax [1]: 99%
Emax at 10 µM [2]: < 35%

IC50 [1]: > 10000 nM
melting point: 213 to 215 °C
SMILES: CC1c2ccccc2-c2ccccc2N1S(=O)(=O)c1ccc(O)c(C(F)(F)F)c1 (stereo not drawn) [Example 58, 4-[(6-Methylphenanthridin-5(6H)-yl)sulfonyl]-2-(trifluoromethyl)phenol]
Emax at 10 µM [2]: < 35%

IC50 [1]: 423 nM
EC50 [2]: 839 nM
melting point: 111 to 112 °C
SMILES: CCC(=O)Oc1ccc(S(=O)(=O)N2c3ccccc3-c3ccc(F)cc3C2CC)cc1 (stereo not drawn) [Example 54, 4-[(6-Ethyl-8-fluorophenanthridin-5(6H)-yl)sulfonyl]phenyl propionate]
Emax [1]: 87%
Emax [2]: 24%

IC50 [1]: 357 nM
melting point: 237 to 239 °C
SMILES: CC1c2cc(F)ccc2-c2cc(Br)ccc2N1S(=O)(=O)c1ccc(O)cc1 (stereo not drawn) [Example 45, 4-[(2-Bromo-8-fluoro-6-methylphenanthridin-5(6H)-yl)sulfonyl]phenol]
Emax [1]: 92%
Emax at 10 µM [2]: < 35%
